Results as given in patent US9655991B2, “Stable hydrogel compositions including additives” (Allergan Industries, S.A.S., priority 2010, dated 2017).

Test: Oxidative degradation of gel by free radicals (H2O2) on rheometer
Details: gel with AA2G and lidocaine vs gel with lidocaine
Source text: The effect of ascorbic acid 2-glucoside (AA2G™) on HA-based gel matrix oxidative degradation was studied. Oxidation testing was used as it allows testing of the resistance of a HA-based gel matrix to free radicals. Degradation by free radicals was simulated on a rheometer (Haake Rheostress 600) by addition of 1/7 ratio of H2O2 30% on the surface of a spread gel measured with a controlled stress rheometer according to the following method: frequency of 1 Hz with 0.8% controlled strain, during 3600 s at 35° C. The time value is taken at 5 Pa/s.

O=C1O[C@H]([C@@H](O)CO)C(O)=C1O[C@H]1O[C@H](CO)[C@@H](O)[C@H](O)[C@H]1O [Ascorbic acid 2-glucoside (AA2G™), Ascorbic acid 2-glucoside]
Protection against oxidative degradation (factor): 3
